Measurements reported in patent publication US11713338B2, “Cyclic peptides multimers targeting α-4-β-7 integrin” (priority 2016, dated 2023).
pIC50: −log10 of the molar value.

Experiments:
Type in all cases: cell-based
[1] = biological target: T1, integrin α4β7 (RPMI8866 human cells adhering to MAdCAM-1) (Homo sapiens, UniProt P13612+P26010); experiment: Integrin α4β7-MAdCAM cell adhesion assay (RPMI8866 cells); details: RPMI8866 cells adhering to MAdCAM; read-out: RPMI8866 Adhesion α4β7/MAdCAM IC50
T1 construct: RMP18866 cells, which express integrin α4β7; host or cells: RPMI8866
T1 sequence (P13612 34-1032): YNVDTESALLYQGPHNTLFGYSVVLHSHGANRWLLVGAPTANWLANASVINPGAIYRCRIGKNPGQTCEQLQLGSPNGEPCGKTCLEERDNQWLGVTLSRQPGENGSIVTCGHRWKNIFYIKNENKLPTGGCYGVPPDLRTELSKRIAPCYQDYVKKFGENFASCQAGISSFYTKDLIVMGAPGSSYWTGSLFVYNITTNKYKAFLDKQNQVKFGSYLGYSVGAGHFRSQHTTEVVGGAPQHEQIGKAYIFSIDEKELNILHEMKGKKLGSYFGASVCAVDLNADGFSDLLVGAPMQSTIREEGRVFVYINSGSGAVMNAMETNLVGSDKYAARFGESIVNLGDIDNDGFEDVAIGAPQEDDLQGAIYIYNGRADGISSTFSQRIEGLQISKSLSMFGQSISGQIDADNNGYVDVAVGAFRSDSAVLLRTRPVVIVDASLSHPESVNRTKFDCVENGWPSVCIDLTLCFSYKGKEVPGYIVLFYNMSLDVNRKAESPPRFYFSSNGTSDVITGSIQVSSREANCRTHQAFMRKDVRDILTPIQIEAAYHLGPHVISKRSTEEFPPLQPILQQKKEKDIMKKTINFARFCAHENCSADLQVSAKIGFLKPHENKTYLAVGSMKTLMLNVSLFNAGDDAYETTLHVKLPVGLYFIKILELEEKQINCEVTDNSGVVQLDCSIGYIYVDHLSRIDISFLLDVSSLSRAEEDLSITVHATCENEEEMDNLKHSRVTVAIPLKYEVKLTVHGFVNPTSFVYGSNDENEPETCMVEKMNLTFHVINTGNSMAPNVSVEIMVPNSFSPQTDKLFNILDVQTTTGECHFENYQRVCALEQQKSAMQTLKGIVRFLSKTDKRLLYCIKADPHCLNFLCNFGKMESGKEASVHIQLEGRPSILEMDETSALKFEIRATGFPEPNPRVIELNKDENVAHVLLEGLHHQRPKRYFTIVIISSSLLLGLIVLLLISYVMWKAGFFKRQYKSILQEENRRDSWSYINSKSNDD
T1 sequence (P26010 20-798): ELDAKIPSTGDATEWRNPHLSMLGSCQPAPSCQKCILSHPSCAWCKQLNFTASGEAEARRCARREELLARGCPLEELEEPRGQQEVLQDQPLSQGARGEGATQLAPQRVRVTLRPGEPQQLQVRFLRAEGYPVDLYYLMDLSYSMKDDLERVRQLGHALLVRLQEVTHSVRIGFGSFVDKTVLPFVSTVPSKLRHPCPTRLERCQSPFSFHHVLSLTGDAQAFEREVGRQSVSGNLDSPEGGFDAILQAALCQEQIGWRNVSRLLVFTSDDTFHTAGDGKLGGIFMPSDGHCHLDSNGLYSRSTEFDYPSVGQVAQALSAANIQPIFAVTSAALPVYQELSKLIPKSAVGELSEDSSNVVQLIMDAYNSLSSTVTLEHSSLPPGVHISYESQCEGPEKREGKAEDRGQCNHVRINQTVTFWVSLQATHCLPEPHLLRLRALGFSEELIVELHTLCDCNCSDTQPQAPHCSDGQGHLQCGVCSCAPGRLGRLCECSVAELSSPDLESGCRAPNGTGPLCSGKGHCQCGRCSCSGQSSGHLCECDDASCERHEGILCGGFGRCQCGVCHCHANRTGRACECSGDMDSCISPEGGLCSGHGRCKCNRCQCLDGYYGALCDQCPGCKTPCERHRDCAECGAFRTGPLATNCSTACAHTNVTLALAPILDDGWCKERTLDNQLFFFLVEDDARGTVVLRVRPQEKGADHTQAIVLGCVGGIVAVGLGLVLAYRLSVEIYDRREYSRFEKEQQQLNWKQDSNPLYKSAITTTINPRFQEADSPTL
Description: Integrin α4β7-MAdCAM Cell Adhesion Assay
(§1) RPMI8866 cells were resuspended at 10 million cells/ml in PBS containing […] and incubated at 37° C. for 30 min in a 50 ml tube. […] The plate was emptied by inverting and blotting on paper towels and washed manually twice with PBS. 100 μl PBS was then added to each well. […] To calculate the dose response, the fluorescence value of control wells not containing cells was subtracted from each test well.

[2] = biological target: T2, integrin α4β7 on α4β7+ memory T helper cells (Homo sapiens, UniProt P13612+P26010); experiment: MAdCAM-1 competition / receptor occupancy assay in human whole blood, α4β7-positive Th memory cells; details: human whole blood; for pIC50: inhibition of MAdCAM-1 binding to α4β7-positive Th memory cells, FACS, read-out: MADCAM FACS α4β7 Th mem
T2 construct: endogenous in cells
T2 sequence (P13612 34-1032): T1 sequence (P13612 34-1032)
T2 sequence (P26010 20-798): T1 sequence (P26010 20-798)
Description: Analyte Competition Assay in CD4+ Integrin α4+β7-Lo Memory T Cells
Receptor occupancy in primary cells was determined by measuring the amount of biotinylated human recombinant MAdCAM-1-FC or human recombinant VCAM-1-Fc bound to selected cell populations using flow cytometry. Human recombinant MAdCAM-1-FC or human recombinant VCAM-1-FC (R&D systems) were biotinylated using commercially available reagents and protocol (Pierce).
Whole blood was collected from human donors in sodium heparin tubes. […] Cells were washed twice with 1 mL of 1X DPBS calcium magnesium free (CMF) (ThermoFisher Scientific) and resuspended in 100 microL of DPBS CMF.
Biotinylated human recombinant MAdCAM-1-Fc or VCAM-1-Fc were added at saturating concentration and incubated at room temperature for 1 hour. […] Cells were washed with 1 mL stain buffer-FBS (BD Biosciences) and resuspended in 100 μl stain Buffer-FBS (BD Biosciences) containing 4 mM MnCl2. […] Cells were then washed with 1 mL stain buffer-FBS and resuspended in […] stain buffer-FBS. The cells were incubated in the dark for 30 minutes at room temperature with 1 ul Streptavidin APC (Biolegend 0.2 mg/ml) and a panel of antibodies for the detection of memory T helper a4b7-positive cells subset. And amount of 5.0 ul each of the following antibodies were used; CD45 FITC (BioLegend 200 ug/ml), CD29 APC Cy7 (BioLegend 100 ug/ml), Integrin beta7 PE, (BioLegend concentration 50 μg/mL), CD49d V421 (BioLegend 50 μg/mL), CD3 V510 (BioLegend 30 μg/mL), CD4 PECy7 (BioLegend 100 μg/mL), CD45RO PerCP, BioLegend 200 μg/mL). The cells were then washed with stain-buffer-FBS and resuspended in 150 microL stain buffer-FBS for acquisition on the flow cytometer (BD FACSCanto™ flow cytometer and BDFACSDiva™ software). FACS data was acquire by electronic gating on the basis of forward versus side scatter, The cytometer was set to collect 20,000 events in each tube. Cell population were determined using the following markers, CD45+, CD3+, CD4+, CD45RO+, CD49d+, integrin b7, biotinylated ligands.
Compound receptor occupancy was defined as the decrease in the number of integrin β7+ or integrin β7-lo cells binding biotinylated rhMAdCAM-1 or rhVCAM-1, respectively.
Receptor occupancy was calculated with the following equation: 100−((% ligand-positive cells with compound/% ligand-positive cells DMSO)*100) In Vivo T Lymphocyte Trafficking Analysis in Mouse Model of Colitis

[3] = biological target: T3, integrin α4β1 (RAMOS human cells adhering to VCAM-1) (Homo sapiens, UniProt P05556+P13612); experiment: Integrin α4β1-VCAM cell adhesion assay (RAMOS cells); details: for pIC50: Ramos cells adhering to VCAM, read-out: Ramos Adhesion α4β1/VCAM IC50
T3 construct: Ramos cells, which express integrin α4β1; host or cells: RAMOS
Description: Integrin α4β1-VCAM Cell Adhesion Assay
as §1, with “The plate was incubated overnight at 4° C. and washed twice with 150 μl per well wash buffer (0.05% Tween 20 in PBS), blocked with 250 μl per well blocking buffer (1% non-fat dry milk in PBS), for 1 hour at room temperature. During blocking step, RAMOS” for “RPMI8866”, “PBS.” for “PBS. 100 μl PBS was then added to each well.”

T3 sequence (P05556 21-798, one chain of several): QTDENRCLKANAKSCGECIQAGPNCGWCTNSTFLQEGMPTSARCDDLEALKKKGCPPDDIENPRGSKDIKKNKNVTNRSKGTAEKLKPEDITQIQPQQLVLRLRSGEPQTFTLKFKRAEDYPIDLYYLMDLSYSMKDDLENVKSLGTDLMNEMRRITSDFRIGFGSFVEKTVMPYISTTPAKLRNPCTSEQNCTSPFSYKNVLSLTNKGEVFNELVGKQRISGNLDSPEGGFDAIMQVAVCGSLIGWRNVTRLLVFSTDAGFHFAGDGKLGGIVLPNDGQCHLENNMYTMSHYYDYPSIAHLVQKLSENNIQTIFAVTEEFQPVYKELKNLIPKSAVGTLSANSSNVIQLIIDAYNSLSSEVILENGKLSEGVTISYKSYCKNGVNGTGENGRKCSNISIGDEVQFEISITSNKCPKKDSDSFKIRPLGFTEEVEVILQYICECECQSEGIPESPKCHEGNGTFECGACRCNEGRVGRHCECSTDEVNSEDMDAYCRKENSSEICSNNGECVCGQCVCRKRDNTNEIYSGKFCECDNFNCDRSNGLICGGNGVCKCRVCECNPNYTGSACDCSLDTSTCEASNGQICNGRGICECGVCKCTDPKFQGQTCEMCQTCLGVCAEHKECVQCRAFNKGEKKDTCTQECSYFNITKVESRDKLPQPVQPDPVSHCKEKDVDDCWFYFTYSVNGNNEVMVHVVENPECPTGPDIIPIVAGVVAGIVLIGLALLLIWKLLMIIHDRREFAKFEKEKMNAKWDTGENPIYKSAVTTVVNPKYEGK

SMILES | pIC50 [1] | pIC50 [2] | further results
CC(C)C[C@@H]1NC(=O)c2ccc(-c3ccc(N4CCN(C(=O)c5cc(C(=O)N6CCN(c7ccc(-c8ccc9cc8CNC(=O)[C@@H]8CCCN8[C@H](C(=O)NC(C)(C)C)[C@H](C)NC(=O)[C@H]([C@@H](C)O)NC(=O)[C@H](CC(=O)O)NC(=O)[C@H](CC(C)C)NC9=O)cc7)CC6)cc(C(F)(F)F)c5)CC4)cc3)c(c2)CNC(=O)[C@@H]2CCCN2[C@H](C(=O)NC(C)(C)C)[C@H](C)NC(=O)[C@H]([C@@H](C)O)NC(=O)[C@H](CC(=O)O)NC1=O [Compound 477] | 7.68 | 6.91 | 
CC(C)C[C@@H]1NC(=O)c2ccc(-c3ccc(N4CCN(C(=O)c5ccc6cc(C(=O)N7CCN(c8ccc(-c9ccc%10cc9CNC(=O)[C@@H]9CCCN9[C@H](C(=O)NC(C)(C)C)[C@H](C)NC(=O)[C@H]([C@@H](C)O)NC(=O)[C@H](CC(=O)O)NC(=O)[C@H](CC(C)C)NC%10=O)cc8)CC7)ccc6c5)CC4)cc3)c(c2)CNC(=O)[C@@H]2CCCN2[C@H](C(=O)NC(C)(C)C)[C@H](C)NC(=O)[C@H]([C@@H](C)O)NC(=O)[C@H](CC(=O)O)NC1=O [Compound 471] | 7.54 | 7.34 | 
CC(C)C[C@@H]1NC(=O)c2ccc(-c3ccc(N4CCN(C(=O)C[C@H](N)C(=O)N5CCN(c6ccc(-c7ccc8cc7CNC(=O)[C@@H]7CCCN7[C@H](C(=O)NC(C)(C)C)[C@H](C)NC(=O)[C@H]([C@@H](C)O)NC(=O)[C@H](CC(=O)O)NC(=O)[C@H](CC(C)C)NC8=O)cc6)CC5)CC4)cc3)c(c2)CNC(=O)[C@@H]2CCCN2[C@H](C(=O)NC(C)(C)C)[C@H](C)NC(=O)[C@H]([C@@H](C)O)NC(=O)[C@H](CC(=O)O)NC1=O [Compound 492] | 7.60 | 6.98 | 
CC(C)C[C@@H]1NC(=O)c2ccc(-c3ccc(N4CCN(C(=O)c5cc6ccccc6c(Cc6c(O)c(C(=O)N7CCN(c8ccc(-c9ccc%10cc9CNC(=O)[C@@H]9CCCN9[C@H](C(=O)NC(C)(C)C)[C@H](C)NC(=O)[C@H]([C@@H](C)O)NC(=O)[C@H](CC(=O)O)NC(=O)[C@H](CC(C)C)NC%10=O)cc8)CC7)cc7ccccc67)c5O)CC4)cc3)c(c2)CNC(=O)[C@@H]2CCCN2[C@H](C(=O)NC(C)(C)C)[C@H](C)NC(=O)[C@H]([C@@H](C)O)NC(=O)[C@H](CC(=O)O)NC1=O [Compound 502] | 6.99 |  | pIC50 [3]: 6.11; Ratio Ramos/RPMI ([3]; ratio of cell adhesion IC50s, Ramos α4β1/VCAM over RPMI8866 α4β7/MAdCAM): 8
CC(C)C[C@@H]1NC(=O)c2ccc(-c3ccc(N4CCN(C(=O)CCOCCOCCNC(=O)COCC(=O)NCCOCCOCCC(=O)N5CCN(c6ccc(-c7ccc8cc7CNC(=O)[C@@H]7CCCN7[C@H](C(=O)NC(C)(C)C)[C@H](C)NC(=O)[C@H]([C@@H](C)O)NC(=O)[C@H](CC(=O)O)NC(=O)[C@H](CC(C)C)NC8=O)cc6)CC5)CC4)cc3)c(c2)CNC(=O)[C@@H]2CCCN2[C@H](C(=O)NC(C)(C)C)[C@H](C)NC(=O)[C@H]([C@@H](C)O)NC(=O)[C@H](CC(=O)O)NC1=O [Compound 506] |  |  | pIC50 [3]: 4.96
CC(C)C[C@@H]1NC(=O)c2ccc(-c3ccc(N4CCN(C(=O)c5ccnc(-c6cc(C(=O)N7CCN(c8ccc(-c9ccc%10cc9CNC(=O)[C@@H]9CCCN9[C@H](C(=O)NC(C)(C)C)[C@H](C)NC(=O)[C@H]([C@@H](C)O)NC(=O)[C@H](CC(=O)O)NC(=O)[C@H](CC(C)C)NC%10=O)cc8)CC7)ccn6)c5)CC4)cc3)c(c2)CNC(=O)[C@@H]2CCCN2[C@H](C(=O)NC(C)(C)C)[C@H](C)NC(=O)[C@H]([C@@H](C)O)NC(=O)[C@H](CC(=O)O)NC1=O [Compound 465] |  | 6.88 | 
CC(C)C[C@@H]1NC(=O)c2ccc(-c3ccc(N4CCNCC4)cc3)c(c2)CNC(=O)[C@@H]2CCCN2[C@H](C(=O)NC(C)(C)C)[C@H](C)NC(=O)[C@H]([C@@H](C)O)NC(=O)[C@H](CC(=O)O)NC1=O [Compound 340] |  |  | receptor occupancy at low concentrations ([2]; low concentrations): 50%
CC(C)C[C@@H]1NC(=O)c2ccc(-c3ccc(N4CCN(C(=O)CC[C@@H](N)C(=O)N5CCN(c6ccc(-c7ccc8cc7CNC(=O)[C@@H]7CCCN7[C@H](C(=O)NC(C)(C)C)[C@H](C)NC(=O)[C@H]([C@@H](C)O)NC(=O)[C@H](CC(=O)O)NC(=O)[C@H](CC(C)C)NC8=O)cc6)CC5)CC4)cc3)c(c2)CNC(=O)[C@@H]2CCCN2[C@H](C(=O)NC(C)(C)C)[C@H](C)NC(=O)[C@H]([C@@H](C)O)NC(=O)[C@H](CC(=O)O)NC1=O [Compound 495] | 7.52 |  | 
